PubChem BioAssay AID463074 (Broad Institute, 2010)
Calls of active or inactive are those of the source.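 How the source made its calls: active means AC50 no more than tenfold above the top dose tested, or full inhibition at every dose with a flat fit (cut at about 19 µM in these data); inconclusive means flat curve fit with inhibition between 30% and 70%, or poor fit; inactive means AC50 more than tenfold above the top dose tested.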

Test system: HMLE_sh_eGFP viability, CellTiter-Glo luminescence, 72 h
Experiment: cytotoxicity in HMLE control line with eGFP shRNA, dose response, counter-screen for HMLE_sh_ECad selective toxicity project, cell-based, HMLE_sh_eGFP, luminescence (AID 463074);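 further: counterscreen control line to flag general toxicity for the HMLE_sh_ECad screen; potency for loss of viability as luminescence drops below DMSO wells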

Compound	AC50
COc1ccc(C2=NN(c3nc4ccccc4s3)C(=O)C2)cc1	4.7 µM
O=C(CNC(=O)C1COc2ccccc2O1)N/N=C/c1ccc(O)cc1O (centres undefined)	5.21 µM
CCCCCCSc1cc(-c2nc3cnccn3c2NCCCC)ccc1OC	6.71 µM
Cc1cccc(N2CCN(C(=O)c3cc4n(n3)C(C(F)(F)F)CC(c3ccco3)N4)CC2)c1C (centres undefined)	9.71 µM
CCN(c1ccccc1)c1nc(C#N)nc(N(CC)c2ccccc2)n1	7.07 µM
COc1ccc(-c2cc([C@H]3[C@@H]4C=CCC[C@@]4(C)C(=O)N3Cc3ccccc3)ccc2F)cc1	6.8 µM
C#CCOCCOCCOCCNc1nc(N2CCN(C(=O)CCCCCCCCCCNC(=O)Cn3cc(C[C@@H](C)O)nn3)CC2)nc(N2CCN(C(=O)CCCCCCCCCCNC(=O)[C@H](CCCCN)n3cc(C[C@@H](C)CC)nn3)CC2)n1	6.8 µM
C=CCn1c(SCc2c(C)noc2C)nc2sc3c(c2c1=O)CCCCC3	1.42 µM
Cc1nn(Cc2c(Cl)cccc2Cl)c(C)c1NC(=O)c1cn(-c2ccccc2)nc1-c1ccccc1	1.19 µM
O=C(CN1CCCc2ccccc21)N/N=C/c1c(O)ccc2ccccc12	2.7 µM
CSc1ccc(C2=CC(=O)C[C@H](c3ccc(Cl)cc3)C2)cc1	9.27 µM
C/C(=N\NC(=O)c1nnn(-c2nonc2N)c1CN1CCCCC1)c1ccccc1O	4.26 µM
COc1ccc2nc(C)cc(SCC(=O)N/N=C/c3cccc4ccccc34)c2c1	1.86 µM
Cc1[nH]c2ccccc2c1/C=N/NC(=O)C1CC1(c1ccccc1)c1ccccc1 (centres undefined)	6.08 µM
CN1CCN(C2=Cc3ccc(Cl)cc3Sc3ccc(F)cc32)CC1	6.74 µM
O=C(/C(=C\c1ccccc1)c1nc2ccccc2[nH]1)c1ccc(Cl)cc1	3.27 µM
Oc1ccc(Nc2nc(-c3ccccc3O)nc3ccccc23)cc1	4.27 µM
CCOC(=O)C1=C(c2ccccc2)N=c2s/c(=C\c3cccc(O)c3)c(=O)n2C1c1cccs1 (centres undefined)	3.39 µM
Cc1ccc(C)c(N2CCN(C(=S)Nc3ccc4nc(N5CCN(C)CC5)cc(C)c4c3)CC2)c1	7.7 µM
O=C1NC(c2ccc(-c3ccccc3[N+](=O)[O-])o2)C(C(=O)c2ccc(Cl)cc2)C(O)(C(F)(F)F)N1 (centres undefined)	13.8 µM

Compound	AC50
CC(C)CC(=O)c1c(O)c(C=O)c(O)c2c1O[C@@]1(C)[C@@H](C2)C[C@H]2C[C@@H]1C2(C)C	6.32 µM
Cc1cccc(C(=O)Nc2ccc(C(=O)Nc3ccc(O)cc3)cc2)c1	5.08 µM
O=C(Nc1cc(S(=O)(=O)Nc2ccc(Cl)cc2)ccc1N1CCCCC1)c1ccc(F)cc1Cl	5.37 µM
c1ccc(-c2cc3c(NCC4COc5ccccc5O4)ncnc3s2)cc1 (centres undefined)	4.99 µM
CCN1C(=O)/C(=C\N2CCN(c3cccc(Cl)c3)CC2)SC1=S	> 19.5 µM (inactive)
O=C(c1ccc(OCCN2CCCCC2)cc1)c1c(-c2ccc(O)cc2)sc2cc(O)ccc12	2.35 µM
CC(C)(C)N(Cc1ccccc1)C(=O)c1cc2ccccc2o1	0.653 µM
CCCCCc1nc2c(c(=O)c3ccccc3n2C)c(=O)n1C1CCCCCC1	2.97 µM
O=C(Nc1ccc(Cl)cc1)Nc1nnc(-c2ccncc2)s1	2.42 µM
O=C(C1CCCN(S(=O)(=O)c2ccc([N+](=O)[O-])cc2)C1)N1CCCCC1 (centres undefined)	> 19.5 µM (inactive)
O=C(Nc1ccncc1)c1cc(-c2cccc(Br)c2)nc2ccccc12	5.99 µM
COc1ccc(C(=O)/C=C2/C(=O)Nc3ccccc32)c(OC)c1	6.75 µM
O=C(NCCN1CCCC1)c1ccc2c(c1)N(Cc1cccc(Cl)c1)C(=O)c1ccccc1S2(=O)=O	> 19.5 µM (inactive)
Cc1ccc(NC(=S)Nc2ccc(C(C)C)cc2)cc1S(=O)(=O)N1CCCCCC1	3.82 µM
Cc1c(C(=O)N(Cc2ccccc2)Cc2cccs2)cnn1-c1ccc(Cl)cc1	1.42 µM
CCN(CC)CCNC(=O)c1[nH]c2ccc(OCc3ccccc3)cc2c1C	1.81 µM
Cc1cc(SCC(=O)c2cccs2)n2nc(C)c(-c3ccc(Cl)cc3)c2n1	15.5 µM
CC#CCOC(=O)c1c(C)nc2sc3c(c2c1N)CCC(O)C3 (centres undefined)	2.65 µM
COc1ccc(NC(=O)c2nc[nH]c2C(=O)N[C@@H](CC(C)C)C(=O)OC(C)(C)C)cc1	8.85 µM
